Measurements published in patent publication US20010020013A1, “Ortho-diphenol compounds, methods and pharmaceutical compositions for inhibiting parp” (GUILFORD PHARMACEUTICALS, INC., priority 1998, published 2001).

Legend:
[1] = system: C57/BL male mice; assay: Septic shock assay (LPS plus galactosamine challenge), mortality; format: in vivo, mouse; settings: 60, 20, 6 and 2 mg/kg daily IP for three days, first dose 30 min after challenge
Experimental: Groups of 10 C57/BL male mice weighing 18 to 20 g were administered a test compound, 1-carboxynaphthalene-1-carboxamide at the doses of 60, 20, 6 and 2 mg/kg, daily, by intraperitopeal (IP) injection for three consecutive days. Each animal was first challenged with lipopolysaccharide (LPS, from E. Coli, LD100 of […] IV) plus galactosamine (20 mg/animal IV). The first dose of test compound in a suitable vehicle was given 30 minutes after challenge, and the second and third doses were given 24 hours later on day 2 and day 3 respectively, with only the surviving animals receiving the second or third dose of the test compound. Mortality was recorded every 12 hours after challenge for the three-day testing period. 1-Carboxy-naphthalene-1-carboxamide provided a protection against mortality from septic shock of about 40%.

[2] = system: human fibroblast cells lines (W138 or BJ cells); assay: Extending proliferative capacity and lifespan of cells; format: cell-based; settings: untreated cells stop dividing after about 40 days
Experimental: At the time of subdivision, the media is aspirated, and the cells rinsed with phosphate buffer saline (PBS) and then trypsinized. The cells are counted with a Coulter counter and plated at a density of 10^5 cells per cm^2 in 6-well tissue culture plates in DMEM/199 medium supplemented with 10% bovine calf serum and varying amounts ([…]: from a 100X stock solution in DMEM/M199 medium) of a PARP inhibitor of Formula I as disclosed herein. This process is repeated every 7 days until the cell appear to stop dividing. The untreated (control) cells reach senescence and stop dividing after about 40 days in culture.

[3] = system: male Long-Evans rats; assay: Neuroprotective effect of DPQ on focal cerebral ischemia (distal MCA cauterization plus bilateral CCA occlusion), TTC infarct area and volume; format: in vivo, rat
Experimental: Focal cerebral ischemia was produced by cauterization of the right distal MCA (middle cerebral artery) with bilateral temporary common carotid artery occlusion in male Long-Evans rats for 90 minutes. All procedures performed on the animals were approved by the University Institutional Animal Care and Use Committee of the University of Pennsylvania. A total of 42 rats (weights: 230-340 g) obtained from Charles River were used in this study. The animals fasted overnight with free access to water prior to the surgical procedure.
Two hours prior to MCA occlusion, varying amounts (control, n=14; 5 mg/kg, n=7; 10 mg/kg, n=7; 20 mg/kg, n=7; and 40 mg/kg, n=7) of the compound, 3,4-dihydro-5-[4-(1-piperidinyl)-butoxy]-1 (2H)-isoquinolinone (“DPQ”) were dissolved in dimethyl sulfoxide (DMSO) using a sonicator. A volume of 1.28 ml/kg of the resulting solution was injected intraperitoneally into fourteen rats.
Focal cerebral ischemia was produced by cauterization of the distal portion of the right MCA with bilateral temporary common carotid artery (CCA) occlusion by the procedure of Chen et al., “A Model of Focal Ischemic Stroke in the Rat: Reproducible Extensive Cortical Infarction”, Stroke 17:738-43 (1986) and/or Liu et al., “Polyethylene Glycol-conjugated Superoxide Dismutase and Catalase Reduce Ischemic Brain Injury”, Am. J. Physiol. 256:H589-93 (1989), both of which are hereby incorporated by reference. […]
Two hours after MCA occlusion, the animals were given the same doses of the PARP inhibitor as in the pre-treatment. […] To avoid artifacts due to edema, the damaged area was calculated by subtracting the area of the normal tissue in the hemisphere ipsilateral to the stroke from the area of the hemisphere contralateral to the stroke, by the method of Swanson et al., “A Semiautomated Method for Measuring Brain Infarct Volume”, J. Cereb. […] The total volume of infarction was calculated by summation of the damaged volume of the brain slices.

SMILES: NC(=O)C1(C(=O)O)CC=Cc2ccccc21 (stereo not shown) [1-Carboxy-naphthalene-1-carboxamide, 1-carboxynaphthalene-1-carboxamide]
- protection against mortality from septic shock [1]: about 40%

SMILES: NC(=O)c1cccc(N)c1 [3-amino-benzamide]
- effect on lifespan of the cells ([2]; 10 μM): little or no effect
- effect on lifespan of the cells ([2]; 100 μM): lengthen the lifespan of the cells
- time in culture at which cells still divide ([2]; 1 mM): still divide after 60 days

SMILES: O=C1NCCc2c(OCCCCN3CCCCC3)cccc21 [DPQ, 3,4-dihydro-5-[4-(1-piperidinyl)-butoxy]-1 (2H)-isoquinolinone]
- distribution of the cross-sectional infarct area (FIG. 1 curve) ([3]; 5 mg/kg): approximately halfway between the control and the 10 mg/kg curves
- distribution of the cross-sectional infarct area (FIG. 1 curve) ([3]; 20 mg/kg): approximately halfway between the control and the 10 mg/kg curves
- distribution of the cross-sectional infarct area (FIG. 1 curve) ([3]; 40 mg/kg): close to the control
